Measurements published in US11330821B2, “Herbicidal compounds” (Syngenta Participations AG, priority 2015, dated 2022).

Key:
Assay type in all cases: in vivo
Settings in all cases: post-emergence spray, evaluated after 13 days
[1] = tested on: Amaranthus retroflexus (AMARE); assay: Post-emergence efficacy, Amaranthus retroflexus
Procedure: (§1) B1 Post-Emergence Efficacy
(§2) Seeds of a variety of test species are shown in standard soil in pots:—Solanum nigrum (SOLNI), Amaranthus retroflexus (AMARE), Setaria faberi (SETFA), Echinochloa crus-galli (ECHCG), Ipomoea hederacea (IPOHE), Lolium perenne (LOLPE). After 8 days cultivation (post-emergence) under controlled conditions in a glasshouse (at 24/16° C., day/night; 14 hours light; 65% humidity), the plants are sprayed with an aqueous spray solution derived from the formulation of the technical active ingredient in acetone/water (50:50) solution containing 0.5% Tween 20 (polyoxyethylene sorbitan monolaurate, CAS RN 9005-64-5). Compounds are applied at 1000 and 62.5 g/ha. The test plants are then grown in a glasshouse under controlled conditions in a glasshouse (at 24/16° C., day/night; 14 hours light; 65% humidity) and watered twice daily. After 13 days, the test is evaluated for the percentage damage caused to the plant. The biological activities are assessed on a five point scale (5=80-100%; 4=60-79%; 3=40-59%; 2=20-39%; 1=0-19%).

Solanum nigrum (SOLNI) = assay: Post-emergence efficacy, Solanum nigrum
Procedure: as §1, §2

Setaria faberi (SETFA) = assay: Post-emergence efficacy, Setaria faberi
Procedure: as §1, §2

Lolium perenne (LOLPE) = assay: Post-emergence efficacy, Lolium perenne
Procedure: as §1, §2

[2] = tested on: Echinochloa crus-galli (ECHCG); assay: Post-emergence efficacy, Echinochloa crus-galli
Procedure: as §1, §2

[3] = tested on: Ipomoea hederacea (IPOHE); assay: Post-emergence efficacy, Ipomoea hederacea
Procedure: as §1, §2

Compound	AMARE percentage damage caused to the plant (five point scale) ([1]; 62.5 g/ha)	AMARE percentage damage caused to the plant (five point scale) ([1]; 1000 g/ha)	SOLNI percentage damage caused to the plant (five point scale) (Solanum nigrum (SOLNI); 62.5 g/ha)	SOLNI percentage damage caused to the plant (five point scale) (Solanum nigrum (SOLNI); 1000 g/ha)	SETFA percentage damage caused to the plant (five point scale) (Setaria faberi (SETFA); 62.5 g/ha)	SETFA percentage damage caused to the plant (five point scale) (Setaria faberi (SETFA); 1000 g/ha)	LOLPE percentage damage caused to the plant (five point scale) (Lolium perenne (LOLPE); 62.5 g/ha)	LOLPE percentage damage caused to the plant (five point scale) (Lolium perenne (LOLPE); 1000 g/ha)	ECHCG percentage damage caused to the plant (five point scale) ([2]; 62.5 g/ha)	ECHCG percentage damage caused to the plant (five point scale) ([2]; 1000 g/ha)	IPOHE percentage damage caused to the plant (five point scale) ([3]; 62.5 g/ha)	IPOHE percentage damage caused to the plant (five point scale) ([3]; 1000 g/ha)
Cc1nc(COc2c(Cl)ccc(Cl)c2-c2c(O)c(C)nn(C)c2=O)cs1 [Compound 1.12]	3 (3=40-59%)	5 (5=80-100%)	3 (3=40-59%)	5 (5=80-100%)	2 (2=20-39%)	5 (5=80-100%)	1 (1=0-19%)	4 (4=60-79%)	2 (2=20-39%)	4 (4=60-79%)	4 (4=60-79%)	5 (5=80-100%)
Cc1nn(C)c(=O)c(-c2c(Cl)c(Cl)cc(Cl)c2OCc2cnc(Cl)s2)c1O [Compound 5.01]	3 (3=40-59%)	5 (5=80-100%)	5 (5=80-100%)	5 (5=80-100%)	2 (2=20-39%)	5 (5=80-100%)	2 (2=20-39%)	5 (5=80-100%)	2 (2=20-39%)	5 (5=80-100%)	5 (5=80-100%)	5 (5=80-100%)
Cc1nn(C)c(=O)c(-c2c(Cl)ccc(Cl)c2OCc2nccs2)c1O [Compound 1.04]	5 (5=80-100%)	5 (5=80-100%)	5 (5=80-100%)	5 (5=80-100%)	5 (5=80-100%)	5 (5=80-100%)	3 (3=40-59%)	5 (5=80-100%)	4 (4=60-79%)	5 (5=80-100%)	5 (5=80-100%)	5 (5=80-100%)
Cc1nn(C)c(=O)c(-c2c(F)ccc(Cl)c2OCc2ccncc2)c1O [Compound 1.24]	2 (2=20-39%)	5 (5=80-100%)	4 (4=60-79%)	5 (5=80-100%)	1 (1=0-19%)	5 (5=80-100%)	1 (1=0-19%)	5 (5=80-100%)	3 (3=40-59%)	5 (5=80-100%)	4 (4=60-79%)	5 (5=80-100%)
Cc1nn(C)c(=O)c(-c2c(F)ccc(Cl)c2OCc2nccs2)c1O [Compound 1.25]	5 (5=80-100%)	5 (5=80-100%)	5 (5=80-100%)	5 (5=80-100%)	5 (5=80-100%)	5 (5=80-100%)	4 (4=60-79%)	5 (5=80-100%)	4 (4=60-79%)	5 (5=80-100%)	5 (5=80-100%)	5 (5=80-100%)
